The text below walks through data of publication PMC6750108, “Crystal Structure of 4-Hydroxyphenylpyruvate Dioxygenase in Complex with Substrate Reveals a New Starting Point for Herbicide Discovery” (Research, 2019).

The target in one test is T1, AtHPPD (Arabidopsis thaliana, UniProt P93836).
T1 construct: gene HPD; full-length, N-terminal His tag (pET15b), E. coli BL21 (DE3); Ni-NTA, ion exchange, size exclusion; homodimers in crystal
T1 sequence (P93836 1-445): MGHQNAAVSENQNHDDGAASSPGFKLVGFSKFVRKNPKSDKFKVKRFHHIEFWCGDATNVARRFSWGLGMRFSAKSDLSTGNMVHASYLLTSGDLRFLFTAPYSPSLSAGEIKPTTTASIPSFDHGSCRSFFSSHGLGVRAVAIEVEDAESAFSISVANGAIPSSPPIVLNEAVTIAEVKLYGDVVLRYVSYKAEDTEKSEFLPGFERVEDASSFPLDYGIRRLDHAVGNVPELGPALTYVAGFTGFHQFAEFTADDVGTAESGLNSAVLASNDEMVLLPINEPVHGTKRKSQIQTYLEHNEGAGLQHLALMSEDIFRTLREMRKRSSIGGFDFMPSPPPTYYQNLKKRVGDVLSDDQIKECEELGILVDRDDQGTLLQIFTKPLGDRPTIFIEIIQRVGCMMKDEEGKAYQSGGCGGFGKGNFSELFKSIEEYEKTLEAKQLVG
Briefly: HGD-coupled assay at […] nm, progress curves. The class given is biochemical.

For another test, the target named is T2, human HPPD (Homo sapiens, UniProt P32754).
T2 construct: gene HPD
T2 sequence (P32754 2-393): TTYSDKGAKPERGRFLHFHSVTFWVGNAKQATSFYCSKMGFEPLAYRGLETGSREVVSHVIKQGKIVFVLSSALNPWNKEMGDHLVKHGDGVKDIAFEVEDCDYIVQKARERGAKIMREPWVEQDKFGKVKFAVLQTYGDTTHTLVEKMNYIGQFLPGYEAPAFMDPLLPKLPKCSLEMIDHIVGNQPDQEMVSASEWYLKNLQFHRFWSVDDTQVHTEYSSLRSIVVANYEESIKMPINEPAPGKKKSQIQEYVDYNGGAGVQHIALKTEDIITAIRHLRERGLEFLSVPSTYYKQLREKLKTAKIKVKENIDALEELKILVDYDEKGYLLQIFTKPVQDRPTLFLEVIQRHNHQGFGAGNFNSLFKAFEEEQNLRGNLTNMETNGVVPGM
Description: inhibition kinetics (supplement Method S2). The class given is biochemical.

Structures are written as SMILES.

As a reminder, the Ki is a dissociation constant, usually derived from enzyme kinetics or from competition with a known ligand. A low value points to higher affinity. Turning to `Cc1cccc(C)c1-n1c(=O)c2cc(C(=O)C3C(=O)CCCC3=O)ccc2n(C)c1=O` [Y13161], the Ki was 24.2 ± 1.01 nM on AtHPPD and 179 ± 7.7 nM at human HPPD.
